In patent EP1605976B1, “PHENYLCARBOXYL ACID AMIDES AND IK r CHANNEL INHIBITORS COMBINATION AND THE USE THEREOF FOR TREATING ATRIAL [sequence]” (Sanofi-Aventis Deutschland GmbH, priority 2003, dated 2004):
Where “and” joins values, the source holds several entries; their conditions need not be identical. Equal entries are not always repeated.

Tests used:
[1] = system: Ziegen mit persistierendem Vorhofflimmern (AF); assay: Efficiency of cardioversion in up to eight goats with persistent atrial fibrillation; format: in vivo
Procedure: In weiteren Versuchen wurde die Effizienz der Kardioversion bei verschiedenen Dosierungen der Verbindung des Beispiels 1 und bei zusätzlicher Infusion von Ibutilide (2 mg/kg) bzw. Dofetilide (10 µg/kg) an mehreren Ziegen getestet (Tabelle 5).
Es wurden Versuche an bis zu acht Ziegen durchgeführt, die sich in persistierendem Vorhofflimmern befanden. Nach Infusion von 0,9% Kochsalzlösung über 30 min zur Kontrolle wurden bis zu acht Ziegen die Verbindung des Beispiels 1 (jeweils im Abstand von Tagen) in Mengen von jeweils 0.0 (Kontrolle), 0.1, 0.3, 1, 3 und 10 mg pro kg Körpergewicht und pro Stunde über eine Dauer von 90 Minuten infundiert, wobei nach 60 Minuten zusätzlich 2 mg Ibutilide pro Kilogramm Körpergewicht in einem Zeitintervall von 30 min verabreicht wurde.
(§1) Analog wurden an bis zu acht Ziegen nach 60 Minuten Verabreichung verschiedener Mengen der Verbindung des Beispiels 1 (jeweils 0.0 (Kontrolle), 0.1, 0.3, 1,3 und 10 mg pro kg Körpergewicht und pro Stunde jeweils im Abstand von Tagen) zusätzlich 10 µg Dofetilide pro kg Körpergewicht in einem Zeitintervall von 30 Minuten anstelle von Ibutilide verabreicht.
Die Effizienz der Kardioversion von persistierendem Vorhofflimmern (AF) durch die Gabe der Verbindung des Beispiels 1 mit ibutilide bzw. der Verbindung des Beispiels 1 mit Dofetilide sind in der Tabelle 5 bei verschiedenen Dosierungen der Verbindung des Beispiels 1 (0.0, 0.1, 0.3, 1, 3 und 10 mg pro kg Körpergewicht und pro Stunde) dargestellt. Angegeben sind die Anzahl der Ziegen, bei denen Kardioversion auftrat, im Vergleich zu der Anzahl der Ziegen, mit denen der Versuch durchgeführt wurde, und daraus errechnet die Effizienz der Kardioversion in Prozent. Jede Terminierung des persistenten Vorhofflimmerns während einer jeweiligen Infusionsperiode wurde als eine erfolgreiche Kardioversion angesehen. […] Tabelle 5: Effizienz der Kardioversion in Prozent bei Ziegen mit persistierendem Vorhofflimmern (AF) bei verschiedenen Dosierungen der Verbindung des Beispiels 1 und bei zusätzlicher Infusion von Ibutilide bzw. Dofetilide. In Klammern angegeben ist jeweils das Verhältnis Ziegen, bei denen Kardioversion auftrat, zu Ziegen, die bei dem jeweiligen Versuch eingesetzt wurden.

[2] = system: persistierendem Vorhofflimmern (AF); assay: Cardioversion in chronically fibrillating goats: time points of cardioversion (single goats); format: in vivo, Ziegen
Procedure: (§2) Es wurden Versuche an zwei Ziegen durchgeführt, die sich in persistierendem Vorhofflimmem von mehr als 45 Tagen befanden. Nach Infusion von 0,9% Kochsalzlösung über 30 min zur Kontrolle, wurde einer Ziege die Verbindung des Beispiels 1 der Reihe nach (jeweils im Abstand von Tagen) in Mengen von jeweils 0.0 (Kontrolle), 0.1, 0.3, 1, 3 und 10 mg pro kg Körpergewicht und pro Stunde über eine Dauer von 90 Minuten infundiert, wobei nach 60 Minuten zusätzlich 2 mg Ibutilide pro Kilogramm Körpergewicht in einem Zeitintervall von 30 min verabreicht wurde.
as §1, with “einer zweiten Ziege” for “an bis zu acht Ziegen”, “1, 3” for “1,3”
Die Zeitpunkte der Kardioversion von persistierendem Vorhofflimmem (AF) durch die Gabe der Verbindung des Beispiels 1 mit Ibutilide bzw. der Verbindung des Beispiels 1 mit Dofetilide sind in den Tabellen 3 und 4 bei verschiedenen Dosierungen der Verbindung des Beispiels 1 (0.0, 0.1, 0.3, 1,3 und 10 mg pro kg Körpergewicht und pro Stunde) dargestellt. Tabelle 3: Auftreten der Kardioversion von persistierendem Vorhofflimmern (AF) nach jeweiliger Reinduktion des Vorhofflimmerns bei verschiedenen Dosierungen der Verbindung des Beispiels 1 und bei zusätzlicher Infusion von Ibutilide nach 60 Minuten (Zeitpunkte in Minuten gemessen ab Beginn der Infusion der Verbindung des Beispiels 1)

[3] = system: persistierendem Vorhofflimmern (AF); assay: Atrial fibrillation cycle length (AFCL) in goats with persistent atrial fibrillation; format: in vivo, Ziegen
Procedure: as §2
as §1, with “einer zweiten Ziege” for “an bis zu acht Ziegen”, “1, 3” for “1,3”
In Fig.1 und Fig.2 sind die Messungen der Zykluslänge des atrialen Flimmerns (AFCL) nach kombinierter Gabe von Ibutilide und der Verbindung des Beispiels 1 bzw. nach kombinierter Gabe von Dofetilide und der Verbindung des Beispiels 1 dargestellt. Die Messungen des AFCL und der Kardioversion erfolgten nebeneinander.
In den Zeichnungen wurden folgende Beschriftungen und Kennzeichnungen vorgenommen: • Fig.1: Messung der Zykluslänge des atrialen Flimmerns (AFCL) nach kombinierter Gabe von Ibutilide und der Verbindung des Beispiels 1 Y-Achse: AFCL in ms X-Achse: Zeit in Minuten Die Verbindung des Beispiels 1 wurde in folgenden Mengen infundiert: • 10 mg/kg/h • 3 mg/kg/h • 1 mg/kg/h • 0.3 mg/kg/h • 0.1 mg/kg/h • 0.0 mg/kg/h (Kontrolle) • Fig.2: Messung der Zykluslänge des atrialen Flimmerns (AFCL) nach kombinierter Gabe von Dofetilide und der Verbindung des Beispiels 1 Y-Achse: AFCL in ms X-Achse: Zeit in Minuten Die Verbindung des Beispiels 1 wurde in folgenden Mengen infundiert: • 10 mg/kg/h • 3 mg/kg/h • 1 mg/kg/h • 0.3 mg/kg/h • 0.1 mg/kg/h • 0.0 mg/kg/h (Kontrolle)

[4] = system: Ziegen, mit remodellierten Vorhöfen; assay: Atrial effective refractory period (AERP) in goats with electrically remodelled atria; format: in vivo; conditions: for atriale effektive Refraktärzeit (AERP): Remodelliert (1-4 days induced AF), cycle length 400 ms, mean ± SD, Beispiel 1 3 mg/kg/h; for Verlängerung des AERP: remodelled atria
Procedure: (§3) An chronisch instrumentierten Ziegen wurden die elektrophysiologischen Effekte der Verbindung des Beispiels 1, des IKr-Kanalblockers Ibutilide und der Kombination von der Verbindung des Beispiels 1 und Ibutilide untersucht.
(§4) Nach Infusion von 0,9% Kochsalzlösung über 30 min zur Kontrolle wurden die Substanzen lbutilide und die Verbindung des Beispiels 1 zum einen in Monotherapie und zum anderen in Kombination der beiden Wirkstoffe an 7 normalen Ziegen (d. h. ohne induziertes Vorhofflimmem) durch intravenöse Infusion verabreicht und die atriale effektive Refraktärzeit (AERP) bestimmt. Bei der Monotherapie wurde über die Zeitdauer von 60 Minuten 0.12 mg Ibutilide pro kg Körpergewicht verabreicht (0.002 mg pro kg pro Minute). In der Kombination wurden über die Dauer von 120 Minuten 6 mg der Verbindung des Beispiels 1 pro kg Körpergewicht verabreicht (3mg pro kg pro Stunde), wobei nach 60 Minuten zusätzlich 0.12 mg Ibutilide pro kg pro Stunde für die Dauer von 60 Minuten verabreicht wurden. Die Infusion der Verbindung des Beispiels 1 wurde insgesamt über 120 min durchgeführt. Kontrollmessungen der atrialen effektiven Refraktärzeit wurden einmal vor Gabe des Ibutilides (Kontrolle 1) und einmal vor Gabe der Verbindung des Beispiels 1 (Kontrolle 2) durchgeführt.
(§5) Das gleiche Infusionsschema wurde an denselben Tieren wiederholt, nachdem elektrische Remodellierung durch induziertes Vorhofflimmern von 1 bis 4 Tagen erzeugt wurde.
as §4, with “Ein analoges Infusionsschema wurde an 5 weiteren Tieren mit Dofetilide anstelle von Ibutilide durchgeführt. Nach” for “Nach”, “Dofetilide” for “lbutilide”, “5” for “7”, “Vorhofflimmern)” for “Vorhofflimmem)”, “Dofetilide” for “Ibutilide”, “Dofetilids” for “Ibutilides”
as §5

[5] = system: normalen Ziegen; assay: Atrial effective refractory period (AERP) in normal goats; format: in vivo; conditions: for atriale effektive Refraktärzeit (AERP): Nicht remodelliert, cycle length 400 ms, mean ± SD, Beispiel 1 3 mg/kg/h; for Verlängerung der AERP: normal atria
Procedure: as §3, §4
Die Kombination beider Substanzen wurde getestet, indem wie oben beschrieben nach der Infusion der Verbindung des Beispiels 1 über eine Stunde zusätzlich Ibutilide verabreicht wurde.
as §4, with “Ein analoges Infusionsschema wurde an 5 weiteren Tieren mit Dofetilide anstelle von Ibutilide durchgeführt. Nach” for “Nach”, “Dofetilide” for “lbutilide”, “5” for “7”, “Vorhofflimmern)” for “Vorhofflimmem)”, “Dofetilide” for “Ibutilide”, “Dofetilids” for “Ibutilides”

[6] = Beispiel 1 dose 0,1, alone or + Ibutilide 2mg/kg or + Dofetilide 10µg/kg
[7] = Beispiel 1 dose 0,3, alone or + Ibutilide 2mg/kg or + Dofetilide 10µg/kg
[8] = Beispiel 1 dose 1, alone or + Ibutilide 2mg/kg or + Dofetilide 10µg/kg
[9] = Beispiel 1 dose 10, alone or + Ibutilide 2mg/kg or + Dofetilide 10µg/kg
[10] = Fig.1 goat, Ibutilide 2 mg/kg per 30 min given after 60 min (alone: from 94 ms baseline), Beispiel 1 3 mg/kg/h
[11] = 5 goats, i.v. infusion: Dofetilide 0.12 mg/kg over 60 min
[12] = 7 goats, i.v. infusion: Ibutilide 0.12 mg/kg over 60 min
[13] = n=5, versus control (94 ms and 93 ms), Dofetilide study
[14] = n=7, versus control (93 ms and 97 ms), Ibutilide study
[15] = n=5, versus control before dosing (151 ms and 158 ms), Dofetilide study
[16] = n=7, versus control before dosing (159 ms and 162 ms), Ibutilide study
[17] = Beispiel 1 dose 0, Ibutilide 2mg/kg or Dofetilide 10µg/kg alone

Compound | AFCL [3, 10] [ms] | atriale effektive Refraktärzeit (AERP) [4, 11] [ms] | atriale effektive Refraktärzeit (AERP) [4, 12] [ms] | Verlängerung des AERP [4, 13] [ms] | Verlängerung des AERP [4, 14] [ms] | atriale effektive Refraktärzeit (AERP) [5, 11] [ms] | atriale effektive Refraktärzeit (AERP) [5, 12] [ms] | Verlängerung der AERP [5, 15] [ms] | Verlängerung der AERP [5, 16] [ms] | Effizienz der Cardioversion [1, 17] [%] | Verhältnis Ziegen, bei denen Kardioversion auftrat, zu Ziegen, die eingesetzt wurden [1, 17] | further results
COc1ccc(CC(=O)NCc2ccccc2-c2ccccc2C(=O)NCCc2cccnc2)cc1 [Beispiel 1, 2'-{[2-(4-Methoxy-phenyl)-acetylamino]-methyl}-biphenyl-2-carbonsäure-(2-pyridin-3-yl-ethyl)-amid] | 147 | 164 ± 19 | 160 ± 16 | 71 | 63 | 209 ± 29 | 206 ± 26 | 51 | 44 | – | – | Effizienz der Cardioversion [1, 6]: 17%; Verhältnis Ziegen, bei denen Kardioversion auftrat, zu Ziegen, die eingesetzt wurden [1, 6]: (1/6); Effizienz der Cardioversion [1, 7]: 17%; Verhältnis Ziegen, bei denen Kardioversion auftrat, zu Ziegen, die eingesetzt wurden [1, 7]: (1/6); Effizienz der Cardioversion [1, 8]: 13%; Verhältnis Ziegen, bei denen Kardioversion auftrat, zu Ziegen, die eingesetzt wurden [1, 8]: (1/8); Effizienz der Cardioversion ([1]; Beispiel 1 dose 3, alone or + Ibutilide 2mg/kg or + Dofetilide 10µg/kg): 38%; Verhältnis Ziegen, bei denen Kardioversion auftrat, zu Ziegen, die eingesetzt wurden ([1]; Beispiel 1 dose 3, alone or + Ibutilide 2mg/kg or + Dofetilide 10µg/kg, listed as Verbindung des Beispiels 1): 3 von 8 and (3/8); Effizienz der Cardioversion [1, 9]: 63%; Verhältnis Ziegen, bei denen Kardioversion auftrat, zu Ziegen, die eingesetzt wurden [1, 9]: (5/8); Zeitpunkte der Kardioversion ([2]; Beispiel 1 10mg/kg/h, time points before the start of Ibutilide at 60 min (monotherapy), one goat, listed as Verbindung des Beispiels 1, 10 mg/kg): 42.00 Minuten and 50.00 Minuten; Kardioversion ([2]; Beispiel 1 alone at 0.1, 0.3, 1, 3 or 10 mg/kg/h, goat of Tabelle 4): nicht zur Kardioversion; Kardioversion ([2]; monotherapy, only at 10 mg/kg/h, goat of Tabelle 3): möglich, eine Kardioversion herbeizuführen; AFCL ([3]; Fig.2 goat, Beispiel 1 alone at 0.1, 0.3, 1, 3 or 10 mg/kg/h): dosisabhängigen Zunahme der AFCL
CN(CCOc1ccc(NS(C)(=O)=O)cc1)CCc1ccc(NS(C)(=O)=O)cc1 [Dofetilide, reference compound] | – | 101 ± 19 | – | 7 | – | 172 ± 11 | – | 21 | – | 25 | (1/4) | Kardioversion ([2]; 10 µg/kg Dofetilide over 30 min without Beispiel 1, goat of Tabelle 4): eine Kardioversion nicht eintritt; Anstieg der AFCL ([3]; Fig.2 goat, 10 µg/kg Dofetilide over 30 min without Beispiel 1): 14 ms; AFCL ([3]; Fig.2 goat, 10 µg/kg Dofetilide over 30 min without Beispiel 1, from 92 ms baseline): 106 ms
CCCCCCCN(CC)CCCC(O)c1ccc(NS(C)(=O)=O)cc1 (stereo not drawn) [Ibutilide, reference compound] | 101 | – | 98 ± 20 | – | 5 | – | 185 ± 23 | – | 26 | 29 | (2/7) | –
